{"source": "patent US20060293264A1", "about": "“STAT3 decoy oligonucleotides and uses therefor” (priority 2004, published 2006)", "key": {"STAT1": {"target": "T1, STAT1 (Homo sapiens, UniProt P42224)", "T1 construct": "Nuclear protein extracts of PCI-15B cells, prepared according to standard methods, were used for the EMSA; endogenous in cells; host or cells: PCI-15B cells (nuclear extract)", "T1 sequence (P42224 2-750 limits assumed)": "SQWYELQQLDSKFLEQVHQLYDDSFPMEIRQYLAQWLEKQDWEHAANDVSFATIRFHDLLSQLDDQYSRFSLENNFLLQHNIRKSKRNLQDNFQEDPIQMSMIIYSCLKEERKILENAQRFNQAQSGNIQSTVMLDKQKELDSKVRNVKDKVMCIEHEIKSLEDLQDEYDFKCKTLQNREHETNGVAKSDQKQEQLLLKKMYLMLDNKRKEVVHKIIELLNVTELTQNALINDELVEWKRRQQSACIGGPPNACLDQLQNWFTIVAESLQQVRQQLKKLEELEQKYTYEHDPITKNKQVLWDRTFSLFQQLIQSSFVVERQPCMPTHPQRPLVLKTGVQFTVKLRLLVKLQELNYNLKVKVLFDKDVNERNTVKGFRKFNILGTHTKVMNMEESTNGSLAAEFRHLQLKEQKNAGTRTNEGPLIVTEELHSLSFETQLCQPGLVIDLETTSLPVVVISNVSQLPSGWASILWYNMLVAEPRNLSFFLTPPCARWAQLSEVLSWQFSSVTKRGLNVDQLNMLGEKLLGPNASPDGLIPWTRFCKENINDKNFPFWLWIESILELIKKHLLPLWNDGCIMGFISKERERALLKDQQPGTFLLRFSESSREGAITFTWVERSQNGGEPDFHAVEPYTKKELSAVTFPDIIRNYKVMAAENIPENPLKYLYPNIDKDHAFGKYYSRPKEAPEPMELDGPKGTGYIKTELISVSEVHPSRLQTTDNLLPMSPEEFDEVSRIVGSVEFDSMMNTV", "experiment": "EMSA of STAT1 binding to the STAT3 decoy, PCI-15B nuclear extracts", "conditions": "supershift", "protocol": "FIG. 10 depicts binding of STAT 1 to the STAT3 decoy in an electrophoretic mobility shift assay (EMSA). Nuclear protein extracts of PCI-15B cells, prepared according to standard methods, were used for the EMSA. The specificity of STAT1 or STAT3 binding to the STAT3 decoy was determined by supershifting with STAT1- or STAT3-specific antibodies, or both. The experiment has been repeated more than 3 times."}, "[1]": {"test_system": "SCCHN xenografts (1483 cells)", "experiment": "In vivo apoptosis determination by TUNEL in harvested xenografts", "set-up": "species or system athymic nude mice", "conditions": "xenografts harvested after 25 treatments; p=0.00038", "protocol": "In vivo apoptosis determinations. Detection and quantitation of apoptosis was performed by the TUNEL reaction, using the In Situ Cell Death Detection Kit, POD (Roche Diagnostics GmbH, Roche Applied Science, Sandhofer Strasse 116, D-68305 Mannheim, Germany). Cryostat sections were fixed in 4% paraformaldehyde in PBS for 30 min. After washing with PBS for 30 min, the sections were incubated in permeabilization solution (0.1% Triton X-100, 0.1% sodium citrate) for 2 min on ice. The sections were washed twice with PBS before the samples were incubated for 60 min at 37° C. with TUNEL reaction mixture to label DNA strand breaks with Fluorescein-dUTP. After washing three times with PBS, the samples were incubated with Converter-POD for 30 min at 37° C., washed again with PBS, and finally exposed to 0.025% 3,3′-diaminobenzidine (DAB)/0.01% H2O2 in Tris-HCl buffer (pH 7.4) for 10 min. The number of apoptotic cells per high-power field (HPF) was counted. For each treatment, five samples were evaluated, and 5-10 fields of view were quantified on each section.\n(§1) In vivo tumor xenograft studies. Female athymic nude mice nu/nu (4-6 weeks old; 20±2 g; Harlan-Sprague-Dawley) were implanted with 1×10^6 1483 cells into the right and left flank with a 26-gauge needle/1 ml tuberculin syringe, resulting in two tumors per mouse. […]"}, "[2]": {"test_system": "normal mucosal epithelial cells", "conditions": "cited from earlier work"}, "[3]": {"test_system": "head and neck squamous cell carcinoma", "conditions": "dose-dependent; Leong et al. 2003; cited from earlier work"}, "[4]": {"test_system": "Egr-1 transcription recognition sequence", "experiment": "pEgr-1-Luc reporter assay in SCCHN cells", "type": "cell-based", "conditions": "SCCHN cells co-transfected with 2 μg pEgr-1-Luc and 2 μg decoy, 24 hrs", "protocol": "STAT3 decoy-specific transcriptional repression of Egr-1(Early Growth Response -1 enhancer, pEGR-1-Luc, Stratagene Cat. No. 240130, containing three repeats of the Egr-1 transcription recognition sequence: 5′-GGGTGGGGN-3′ (SEQ ID NO: 31) was also observed. SCCHN cells were co-transfected with 2 μg pEgr-1-Luc plasmid and 2 μg of the STAT3 decoy or the control mutant decoy. At 24 hrs after transfection, luciferase activity was measured and normalized to the total amount of protein according to standard methods."}, "[5]": {"test_system": "SCCHN xenografts (1483 cells)", "experiment": "In vivo tumor xenograft study, tumor volumes", "set-up": "species or system athymic nude mice", "conditions": "25 μg intratumoral daily, 1483 xenografts, nude mice; p=0.002", "protocol": "Statistics. In vivo comparisons of STAT3, cyclin D1 and Bcl-xL expression levels were conducted with the Wilcoxon test for comparing two groups or the Kruskal-Wallis test for comparing three groups. All tests were exact and two-tailed. Studies of the joint effect of STAT3 decoy and cisplatin upon in vitro apoptosis were evaluated with a two way factorial design. Additive and synergistic effects of the STAT3 decoy and cisplatin were tested with a permutation test. In vivo tumor xenograft experiments were analyzed with mixed linear models that assumed animals were random effects having an unstructured within-animal covariance matrix. Data were log transformed and examined for the interaction between treatment group and day of observation beginning with day 10 after tumor inoculation, differences between treatment groups were estimated and tested with the pooled estimated standard error. Multiple comparisons were controlled by simulating observations from a multivariate t distribution with the same covariance matrix as the observed data and adjusting p values accordingly.\nas §1"}}, "note": "“Also recorded” adds a separate entry of the source.", "data": [{"substance": "STAT3 decoy (sense CATTTCCCGTAAATC; antisense GATTTACGGGAAATG; phosphorothioate modified, further chemistry not given here; listed as Homo sapiens)", "values": [{"measurement": "binding to STAT1", "setting": "STAT1", "result": "able to bind"}, {"measurement": "increase in apoptosis (TUNEL) compared with mutant control decoy", "setting": "[1]", "result": 3.25, "unit": "fold"}, {"measurement": "toxicity to normal mucosal epithelial cells", "setting": "[2]", "result": "lack toxicity"}, {"measurement": "head and neck squamous cell carcinoma growth in vitro", "setting": "[3]", "result": "abrogate"}, {"measurement": "transcriptional repression of Egr-1 enhancer reporter", "setting": "[4]", "result": "observed"}, {"measurement": "tumor growth (tumor volumes) compared with mutant control decoy", "setting": "[5]", "result": "significantly decreased; also recorded: growth inhibited"}]}]}
